Test [1] has as its target T1, gel-filtered platelets (SFLLRN-NH2 (TRAP)-stimulated aggregation) (Homo sapiens, UniProt P25116).
T1 sequence (P25116 42-425): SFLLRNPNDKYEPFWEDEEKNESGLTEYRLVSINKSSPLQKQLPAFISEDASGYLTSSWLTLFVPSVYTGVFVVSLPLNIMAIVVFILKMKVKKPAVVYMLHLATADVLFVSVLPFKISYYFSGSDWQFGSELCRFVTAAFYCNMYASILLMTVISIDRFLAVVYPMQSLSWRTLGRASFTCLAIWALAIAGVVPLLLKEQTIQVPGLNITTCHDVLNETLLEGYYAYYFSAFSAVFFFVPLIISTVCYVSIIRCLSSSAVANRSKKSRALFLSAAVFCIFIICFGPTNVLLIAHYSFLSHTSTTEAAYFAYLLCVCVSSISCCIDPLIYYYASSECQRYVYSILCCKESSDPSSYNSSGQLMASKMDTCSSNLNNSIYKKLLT
Briefly: In vitro inhibition of SFLLRN-NH2 (TRAP)-induced gel-filtered platelet aggregation. Type of test: cell-based. To be noted: agonist SFLLRN-NH2 (TRAP). The method, then:
The percentage of platelet aggregation is calculated as an increase in light transmission of compound-treated platelet concentrate vs. control-treated platelet concentrate. Human blood is obtained from drug free, normal donors in tubes containing 0.13 M sodium citrate. Platelet rich plasma (PRP) is collected by centrifugation of whole blood at 200×g for 10 min at 25° C. The PRP (5 mL) is gel filtered through Sepharose 2B (bed volume 50 mL), and the platelet count is adjusted to 2×10^7 platelets per sample. The following constituents are added to a siliconized cuvette: concentrated platelet filtrate and Tyrode's buffer (0.14 M NaCl, 0.0027 M KCl, 0.012 M NaHCO3, 0.76 mM Na2 HPO4, 0.0055 M glucose, 2 mg/mL BSA and 5.0 mM HEPES@pH 7.4) in an amount equal to 350 μl, 50 μl of 20 mM calcium and 50 μl of the test compound. Aggregation is monitored in a BIODATA aggregometer for the 3 min following the addition of agonist (thrombin 50 μl of 1 unit/mL).
(§1) The table contains IC50 values (μM) of the compounds in a thrombin receptor binding assay, and IC50 values (μM) against platelet aggregation stimulated by two agonists, thrombin or SFLLRN-NH2 [SEQ. ID. NO:1] (TRAP).

The target of the next test is T2, thrombin receptor (Homo sapiens, UniProt P25116).
T2 construct: CHRF membranes (Jones, Biochim. Biophys. Acta 1992, 1136, 272) are thawed from -70° C; endogenous in cells; host or cells: CHRF cell membranes
T2 sequence (P25116 22-425): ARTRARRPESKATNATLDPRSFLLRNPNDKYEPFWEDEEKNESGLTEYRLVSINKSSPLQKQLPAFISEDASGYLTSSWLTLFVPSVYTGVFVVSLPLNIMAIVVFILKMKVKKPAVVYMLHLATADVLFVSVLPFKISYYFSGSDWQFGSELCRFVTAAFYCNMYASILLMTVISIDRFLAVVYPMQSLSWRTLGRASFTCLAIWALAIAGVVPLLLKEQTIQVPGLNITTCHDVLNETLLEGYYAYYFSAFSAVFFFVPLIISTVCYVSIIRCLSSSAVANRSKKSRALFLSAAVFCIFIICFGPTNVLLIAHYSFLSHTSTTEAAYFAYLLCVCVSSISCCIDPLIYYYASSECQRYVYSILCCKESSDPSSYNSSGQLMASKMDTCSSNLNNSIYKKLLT
Briefly: In vitro thrombin receptor binding assay (displacement of tritiated 721-40 from CHRF membranes). The conditions noted are these: tritiated 721-40 (Ser-pFPhe-Har-Leu-Har-Lys-Tyr-NH2) radioligand, read-out: Thr Receptor Binding IC50. The method, then: CHRF membranes (Jones, Biochim. Biophys. Acta 1992, 1136, 272) are thawed from -70° C., centrifuged at maximum speed for 5 min, washed twice with binding buffer (50 mM HEPES containing 5 mM MgCl2 and 0.1% BSA), and re-suspended in binding buffer ([…]). 100 μl of membranes are added to the 24-Wallac plates and delivered to the Tomtech apparatus. In a typical experiment, 6 μl of samples (from a 125 μg/mL intermediary plate, 20% DMSO) and 44 μl buffer are delivered to the plates (final conc. of compounds is 3.7 μg/mL, 0.6% DMSO). Similarly, 6 μl 20% DMSO and 44 μl buffer are delivered to both column 1 (NSB) and column 12 (TB). 10 μl Ser-pFPhe-Har-Leu-Har-Lys-Tyr-NH2 [SEQ. ID. NO:2] (721-40; 500 μM in deionized water) is added to column 1. 50 μl tritiated 721-40 (specific activity 46 Ci/mmol) is added to all the wells. The plates are mixed well for 20 seconds, incubated for 30 min, and then harvested with 10 mM HEPES/138 mM NaCl using the Skatron harvester. The filters (GF/C Brandel FPXLR 296) are presoaked 3 h in 0.5% polyethylenimine in HEPES/0.1 M N-acetylglucosamine) are set in saran wrap and dried for 3 min in the microwave, and placed in sample bags (Wallac 1450-432). 4.5 mL scintillation fluid (Wallac, Betaplate Scint 1205-440) is added. The bags are sealed, placed in filter cassettes (Wallac 1450-104), and analyzed on the microbeta counter.
as §1

Structures are written as SMILES. Starred links: 1 amine or outer side, 2 acyl side, 3 side chain; linkers in the order of their positions; H or OH if unused. Non-standard residues stand in square brackets, D forms with d. Residues, ends and D or L forms follow the SMILES beside them. Phe(4-F)ψ(2,4-Thz) = O=C(c1csc([C@H](Cc2ccc(F)cc2)N[*:1])n1)[*:2]; Cha = N[C@@H](CC1CCCCC1)C(=O)O

For the compound `CNCC(=O)N[C@@H](Cc1ccc(F)cc1)c1nc(C(=O)N[C@@H](CC2CCCCC2)C(=O)N[C@@H](CCCN=C(N)N)C(=O)NCc2ccccc2)co1` [Compound 1, 2-[1(S)-Sarcosineamido-2-(4-fluorophenyl)ethyl]oxazole-4-carboxy-cyclohexylalanyl-arginine benzylamide], the half-inhibitory concentration (IC50) – broadly, the concentration that gives 50% inhibition – in test [1] came to 10 µM; on thrombin receptor, 2 µM. The matching figures for `N=C(N)NCCC[C@H](NC(=O)[C@H](CC1CCCCC1)NC(=O)c1coc([C@H](Cc2ccc(F)cc2)NC(=O)CCN)n1)C(=O)NCc1ccccc1` [Compound 2, 2-[1(S)-β-Alanineamido-2-(4-fluorophenyl)ethyl]oxazole-4-carboxy-cyclohexylalanyl-arginine benzylamide]: 7 µM and 8.2 µM. Taken in the same sequence, the figures for `CNCC(=O)N[C@@H](Cc1ccc(F)cc1)c1nc(C(=O)N[C@@H](CC2CCCCC2)C(=O)N[C@@H](CCCN=C(N)N)C(=O)NCCc2ccccc2)cs1` [Compound 3, 2-[1(S)-Sarcosineamido-2-(4-fluorophenyl)ethyl]thiazole-4-carboxy-cyclohexylalanyl-arginine phenethylamide] were 0.6 µM and 35 µM. The matching figures for `CC[C@H](C)[C@H](N)C(=O)N[C@@H](Cc1ccc(F)cc1)c1nc(C(=O)N[C@@H](CC2CCCCC2)C(=O)N[C@@H](CCCN=C(N)N)C(=O)N[C@@H](Cc2ccccc2)C(N)=O)cs1` [Compound 5, 2-[1(S)-Isoleucineamido-2-(4-fluorophenyl)ethyl]thiazole-4-carboxy-cyclohexylalanyl-arginyl-phenylalanineamide] (H-I[Phe(4-F)ψ(2,4-Thz)][Cha]RF-NH2): 9 µM and 3.5 µM. For `CNCC(=O)N[C@@H](Cc1ccc(F)cc1)c1nc(C(=O)N[C@@H](CCCCN)C(=O)N[C@@H](CCCNC(=N)N)C(=O)NCCc2ccccc2)cs1` [Compound 6, 2-[1(S)-Sarcosineamido-2-(4-fluorophenyl)ethyl]thiazole-4-carboxy-lysyl-arginine phenethylamide], the IC50 was 4 µM in test [1] and 15.5 µM on thrombin receptor. Taken in the same sequence, the figures for `CNCC(=O)N[C@@H](Cc1ccc(F)cc1)c1nc(C(=O)N[C@@H](CC2CCCCC2)C(=O)N[C@@H](CCCNC(=N)N)C(=O)NCc2ccccc2)c(C)o1` [Compound 7, 2-[1(S)-Sarcosineamido-2-(4-fluorophenyl)ethyl]-5-methyloxazole-4-carboxy-cyclohexylalanyl-arginine benzylamide] were 22 µM and 7 µM. Taken in the same sequence, the figures for `Cc1oc([C@H](Cc2ccc(F)cc2)NC(=O)[C@@H](N)Cc2cn(Cc3ccccc3)cn2)nc1C(=O)N[C@@H](CC1CCCCC1)C(=O)N[C@@H](CCCNC(=N)N)C(=O)NCc1ccccc1` [Compound 8, 2-[1(S)-N(tau)-Benzyl-histidineamido-2-(4-fluorophenyl)ethyl]-5-methyloxazole-4-carboxy-cyclohexylalanyl-arginine benzylamide] were 5 µM and 30 µM.

With `CC(=O)N[C@@H](Cc1ccc(F)cc1)c1nc(C(=O)N[C@@H](CC2CCCCC2)C(=O)N[C@@H](CCCNC(=N)N)C(=O)NCc2ccccc2)c(C)o1` [Compound 9, 2-[1(S)-Acetamido-2-(4-fluorophenyl)ethyl]-5-methyloxazole-4-carboxy-cyclohexylalanyl-arginine benzylamide], the IC50 in test [1] worked out at 11 µM; at thrombin receptor, 31 µM. `Cc1oc([C@H](Cc2ccc(F)cc2)N(C)C)nc1C(=O)N[C@@H](CC1CCCCC1)C(=O)N[C@@H](CCCNC(=N)N)C(=O)NCc1ccccc1` [Compound 10, 2-[1(S)-N,N-Dimethyl-2-(4-fluorophenyl)ethyl]-5-methyloxazole-4-carboxy-cyclohexylalanyl-arginine benzylamide] displayed an IC50 in test [1] of 17 µM.
